Measured values as given in patent publication US20200308192A1, “NOVEL THIAZOLO[5,4-D]PYRIMIDINE DERIVATIVES AS INVERSE AGONISTS OF A2A ADENOSINE RECEPTORS” (Universita degli Studi di Ferrara, priority 2016, published 2020).
Where two headings read alike, the source gives them in different places.

Assays:
[1] = tested on: breast cancer cells MRMT-1; experiment: Cell proliferation assay (DELFIA BrdU); assay type: cell-based; details: 48 hours; for Effect on CGS 21680-induced proliferation of cancer cells: MRMT-1, compound 100 nM pre-treatment, CGS 21680 100 nM
Description: For the experiments of cellular proliferation, the DELFIA® kit was used and a multimode plate reader Ensight® from PerkinElmer. The DELFIA® (dissociation-enhanced lanthanide fluorescence immunoassay) assay is based on Time-Resolved Fluorescence (TRF) and on the incorporation of the 5-bromo-2-deoxyuridine (BrdU) in the DNA filaments recently synthesised by the proliferating cells seeded on microplates. The incorporated BrdU is detected by using a monoclonal antibody conjugated with europium, a long-lived chelated lanthanide, and the fluorescence measured is proportional to the synthesis of DNA in the cells population present in each well. The MRMT-1 cells, breast cancer cells, were pre-treated with some of the antagonists under evaluation at the concentration of 100 nM (compounds 1, 5, 6, 7, 10 of the present invention) for 30 minutes, then stimulated with CGS 21680 100 nM and after 30 minutes the solution of BrdU (10 μl/well) was added. At the end of the incubation period of 48 hours 100 μl/well of Anti-BrdU-Eu (0.5 μg/ml) were added and the cells were incubated for 120 minutes at room temperature. After 4 washings, 200 μl of DELFIA® stimulator were added at room temperature for 15 minutes and the Eu-fluorescence was detected by means of the Ensight® reader from Perkin Elmer (Perkin Elmer, Milan, Italy).

[2] = biological target: T1, human adenosine A2A receptor (Homo sapiens, UniProt P29274); experiment: Competition binding, [3H]-ZM 241385, hA2A CHO membranes
[3] = biological target: T2, human adenosine A1 receptor (Homo sapiens, UniProt P30542); experiment: Competition binding, [3H]-DPCPX, hA1 CHO membranes; details: read-out: Receptor hA1 Ki, mean ± SEM
T2 sequence (P30542 1-326): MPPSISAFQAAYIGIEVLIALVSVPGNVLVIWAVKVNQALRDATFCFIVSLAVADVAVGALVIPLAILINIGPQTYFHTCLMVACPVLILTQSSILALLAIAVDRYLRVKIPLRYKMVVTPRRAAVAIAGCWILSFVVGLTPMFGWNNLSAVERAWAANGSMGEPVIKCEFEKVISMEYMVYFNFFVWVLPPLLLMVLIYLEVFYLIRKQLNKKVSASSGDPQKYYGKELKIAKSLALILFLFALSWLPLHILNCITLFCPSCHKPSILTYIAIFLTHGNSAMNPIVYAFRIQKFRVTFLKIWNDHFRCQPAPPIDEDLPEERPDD

[4] = biological target: T3, human adenosine A3 receptor (Homo sapiens, UniProt P0DMS8); experiment: Competition binding, [125I]-ABMECA, hA3 CHO membranes; details: mean ± SEM
T3 construct: expressed in transfected cells; host or cells: CHO cells (membrane preparation)
T3 sequence (P0DMS8 1-318): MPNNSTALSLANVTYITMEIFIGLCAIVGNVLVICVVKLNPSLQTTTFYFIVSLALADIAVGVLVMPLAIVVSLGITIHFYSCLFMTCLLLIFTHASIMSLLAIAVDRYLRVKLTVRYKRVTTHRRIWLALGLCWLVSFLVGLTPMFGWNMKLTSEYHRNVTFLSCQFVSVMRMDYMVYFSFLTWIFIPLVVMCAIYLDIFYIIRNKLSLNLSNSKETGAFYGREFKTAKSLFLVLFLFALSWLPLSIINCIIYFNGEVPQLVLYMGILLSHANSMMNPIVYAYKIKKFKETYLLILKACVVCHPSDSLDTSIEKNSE

[5] = biological target: T4, human adenosine A2B receptor (Homo sapiens, UniProt P29275); experiment: cAMP assay, inhibition of NECA-stimulated cAMP levels in hA2B CHO cells; details: read-out: Receptor hA2B IC50; cAMP stimulated by NECA (100 nM); mean ± SEM
T4 sequence (P29275 1-332): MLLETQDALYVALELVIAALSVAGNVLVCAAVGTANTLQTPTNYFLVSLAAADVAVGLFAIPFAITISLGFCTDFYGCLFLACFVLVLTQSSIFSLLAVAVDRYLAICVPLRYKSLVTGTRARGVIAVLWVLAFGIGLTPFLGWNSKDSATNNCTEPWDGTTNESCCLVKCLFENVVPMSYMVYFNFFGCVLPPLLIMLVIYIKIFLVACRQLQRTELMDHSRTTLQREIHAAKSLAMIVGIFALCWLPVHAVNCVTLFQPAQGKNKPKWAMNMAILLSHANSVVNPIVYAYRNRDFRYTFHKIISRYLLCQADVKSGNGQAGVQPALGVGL

Female CD1 mice [6] = experiment: Writhing test (acetic acid-induced abdominal constrictions); assay type: in vivo; details: for ED50: Mus musculus, ip, 15 minutes before acetic acid; for Dose-response curve, Writhing Test: P<0.001, one-way ANOVA
Description: (§1) Female CD1 mice (22-24 g) were obtained from Charles River (Milano, Italia). The animals were kept under standard environmental temperature conditions (22±2° C.) and under moisture-controlled conditions with 12 hours light/dark cycle and food and water ad libitum. The animals were acclimated to the laboratory settings for at least 1 hour before testing and were used only once throughout the experiments. All the procedures used in the present study were carried out in accordance with the European Communities Council Directives (86/609/EEC) and the National Laws and Policies (D.L.116/92) after authorization from the Italian Ministry for Health (4/2014-B). In addition, the experimental procedures were in agreement with the current guidelines for the care of laboratory animals and the ethical guidelines for investigations of experimental pain in conscious animals (Couto M. Methods Mol Biol 2011; 770:579-599).
The acetic acid-induced writhing response was performed after intraperitoneal injection of 10 ml/Kg of 0.6% acetic acid solution. The response to the abdominal constrictions induced by acetic acid was evaluated after the intraperitoneal injection of 10 ml/kg of a 0.6% solution of acetic acid. The compounds under evaluation were dissolved in DMSO and then diluted in a saline solution. The carrier consists of saline solution and 5% of DMSO. A writhe is indicated by stretching of the abdomen followed by the extension of the hind limbs. The animals (8 mice per group) were placed singly in a glass cylinder and the number of writhing episodes of abdominal contractions was counted in a 30 minutes period. The compounds were administered intraperitoneally 15 minutes before injection of acetic acid solution.
(§2) The statistical analysis of the data was performed using ANOVA followed by Dunnett's test. […] KH and KL were obtained by using a two sites binding model and Graph PAD Prism (San Diego, Calif., USA). The values of IC50 obtained in the cAMP assays were calculated by non-linear regression analysis using the equation for a sigmoid concentration-response curve. All data are expressed as the mean±SEM of four independent experiments each performed in duplicate for in vitro assays and n=8-10 mice/group for in vivo assays.

Female CD1 mice [7] = experiment: Warm-water tail immersion test; assay type: in vivo; details: intraperitoneal
Description: as §1
The warm-water tail immersion assay was performed using a water thermostated bath at a temperature maintained at 52° C. The compounds under evaluation were dissolved in DMSO and then diluted in saline solution. The carrier consists of saline solution and 5% of DMSO. Before intraperitoneally injecting the compound, the natural time of response of the mice was determined and the distal part of the tail was then immersed in the thermostated bath. The latency in responding to the heat stimulus with a vigorous flexion of the tail was measured by means of a manual stopwatch. A 20 seconds maximum cut-off time was imposed to prevent tissue damage. The latency of the tail withdrawal was then tested 15 minutes after injection of the compound.
as §2

[8] = biological target: T1, human adenosine A2A receptor; experiment: cAMP assay in hA2A CHO cells, basal or with CGS 21680; assay type: cell-based; set-up: expressed in transfected cells; host or cells: CHO cells; details: for IC50: mean ± SEM
Description: For the membranes preparation the culture medium was removed, and the cells were washed with a saline phosphate-buffered solution collected with hypotonic buffer (5 mM Tris HCl, 1 mM EDTA, pH 7.4).
CHO cells transfected with the adenosine receptors were washed with a phosphate-buffered saline solution, detached with trypsin and centrifuged for 10 minutes at 200 g. […] The reaction was terminated by addition of cold 6% trichloroacetic acid (TCA). The TCA suspension was centrifuged at 2000 g for 10 minutes at 4° C. and the supernatant was extracted four times with diethyl ether with water. The final aqueous solution was tested for the cAMP levels by a competition protein binding assay with a cAMP-binding protein. The standard samples of cAMP (0-10 pmoli) were added to each test tube containing the incubation buffer (trizma base 0.1 M, aminophylline 8.0 mM, 2 mercaptoethanol 6.0 mM, pH 7.4) and [^3H]-cAMP. The binding protein previously prepared from beef adrenals, was added to the samples previously incubated at 4° C. for 150 minutes, and after the addition of charcoal were centrifuged at 2000 g for 10 min.
as §2

[9] = CGS 21680 (10 nM), read-out: IC50 cAMP, in presence of CGS 21680
[10] = CGS 21680 (10 nM), read-out: Emax cAMP, in presence of CGS 21680
[11] = basal cAMP, read-out: IC50 cAMP, in absence of CGS 21680
[12] = efficacy versus basal cAMP production, read-out: Emax cAMP, in absence of CGS 21680

T1 sequence (P29274 whole entry): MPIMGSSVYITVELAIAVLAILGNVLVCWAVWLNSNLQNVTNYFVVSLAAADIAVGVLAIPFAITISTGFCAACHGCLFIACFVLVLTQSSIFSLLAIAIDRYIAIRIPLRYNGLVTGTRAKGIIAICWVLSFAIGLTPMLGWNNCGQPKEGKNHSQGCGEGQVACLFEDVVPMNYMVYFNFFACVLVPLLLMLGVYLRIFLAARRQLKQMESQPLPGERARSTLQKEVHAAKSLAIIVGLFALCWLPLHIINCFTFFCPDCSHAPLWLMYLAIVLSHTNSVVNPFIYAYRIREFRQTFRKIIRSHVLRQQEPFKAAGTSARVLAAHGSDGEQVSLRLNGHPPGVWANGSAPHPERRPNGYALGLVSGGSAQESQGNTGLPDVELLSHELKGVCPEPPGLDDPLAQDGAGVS

## CCNC(=O)[C@H]1O[C@@H](n2cnc3c(N)nc(NCCc4ccc(CCC(=O)O)cc4)nc32)[C@H](O)[C@@H]1O [CGS 21680, reference compound]
[1]; MRMT-1, CGS 21680 100 nM
  Effect on proliferation of cancer cells: able to increase the proliferation of the cancer cells

## COc1ccccc1CNc1nc(N)c2nc(-c3ccco3)sc2n1 [Compound 1, 2-(furan-2-yl)-N^5-(2-methoxybenzyl)[1,3]thiazolo[5,4-d]pyrimidin-5,7-diamine]
[2]
  Ki: 6.45 ± 0.57 nM
[3]
  Ki: 3.54 ± 0.32 nM
[4]
  Ki: 36 ± 3 nM
[5]
  IC50: 313 ± 29 nM
Female CD1 mice [6]; intraperitoneal
  ED50: 0.0328 ± 0.0021 mg/kg
  ED50 times lower than ZM 241385, Writhing Test: approximately 42 times
  ED50 times lower than morphine, Writhing Test: 3.75 times
Female CD1 mice [6]
  Dose-response curve, Writhing Test: dose-dependent effect
Female CD1 mice [7]; Mus musculus, ip, 0.25 h, 52° C., 15 minutes after injection
  ED50: 0.134 ± 0.011 mg/kg
Female CD1 mice [7]
  Anti-nociceptive activity, tail immersion test: highest analgesic activity
  Minimum effective dose, tail immersion test: 0.01 mg/kg

## Nc1nc(NCc2ccco2)nc2sc(-c3ccco3)nc12 [Compound 5, 2-(furan-2-yl)-N^5-(furan-2-ylmethyl)[1,3]thiazolo[5,4-d]pyrimidin-5,7-diamine]
[2]
  Ki: 1.73 ± 0.15 nM
[3]
  Ki: 38 ± 4 nM
[4]
  Ki: 4.72 ± 0.38 nM
[1]
  Effect on CGS 21680-induced proliferation of cancer cells: able to reduce the proliferation of cancer cells
[5]
  IC50: 82 ± 9 nM
[8]; [9]
  IC50: 0.04 ± 0.004 nM
[8]; [10]
  Emax: 133 ± 13%
[8]; [11]
  IC50: 0.0016 ± 0.0002 nM
[8]; [12]
  Emax: 64%

## Nc1nc(NCc2cccs2)nc2sc(-c3ccco3)nc12 [Compound 6, 2-(furan-2-yl)-N^5-(thiophen-2-ylmethyl)[1,3]thiazolo[5,4-d]pyrimidin-5,7-diamine]
[2]
  Ki: 3.82 ± 0.31 nM
[3]
  Ki: 12.5 ± 1.1 nM
[4]
  Ki: 6.43 ± 8 nM
[1]
  Effect on CGS 21680-induced proliferation of cancer cells: able to reduce the proliferation of cancer cells
[5]
  IC50: 75 ± 8 nM
[8]; [9]
  IC50: 0.036 ± 0.003 nM
[8]; [10]
  Emax: 132 ± 12%
[8]; [11]
  IC50: 0.0017 ± 0.0002 nM
[8]; [12]
  Emax: 61%

## Nc1nc(NCc2cccnc2)nc2sc(-c3ccco3)nc12 [Compound 7, 2-(furan-2-yl)-N^5-(pyridin-3-ylmethyl)[1,3]thiazolo[5,4-d]pyrimidin-5,7-diamine]
[2]
  Ki: 0.68 ± 0.05 nM
[3]
  Ki: 7.12 ± 0.65 nM
[4]
  Ki: 18.2 ± 1.7 nM
[1]
  Effect on CGS 21680-induced proliferation of cancer cells: able to reduce the proliferation of cancer cells
[5]
  IC50: 109 ± 11 nM
[8]; [9]
  IC50: 0.059 ± 0.006 nM
[8]; [10]
  Emax: 126 ± 12%
[8]; [11]
  IC50: 0.011 ± 0.001 nM
[8]; [12]
  Emax: 61%

## Nc1nc(NCCc2cccs2)nc2sc(-c3ccco3)nc12 [Compound 10, 2-(furan-2-yl)-N^5-(2-(thiophen-2-yl)ethyl)[1,3]thiazolo[5,4-d]pyrimidin-5,7-diamine]
[2]
  Ki: 18 ± 2 nM
[3]
  Ki: 4.92 ± 0.37 nM
[4]
  Ki: 65 ± 6 nM
[1]
  Effect on CGS 21680-induced proliferation of cancer cells: able to reduce the proliferation of cancer cells
[5]
  IC50: 112 ± 11 nM
[8]; [9]
  IC50: 0.045 ± 0.004 nM
[8]; [10]
  Emax: 138 ± 13%
[8]; [11]
  IC50: 0.0064 ± 0.0005 nM
[8]; [12]
  Emax: 62%

## Nc1nc(NCCc2ccc(O)cc2)nc2nc(-c3ccco3)nn12 [ZM 241385, reference compound]
[4]
  Ki: 683 ± 64 nM
Female CD1 mice [6]; intraperitoneal
  ED50: 1.37 ± 0.108 mg/kg
Female CD1 mice [6]
  Dose-response curve, Writhing Test: dose-dependent effect
Female CD1 mice [7]
  Anti-nociceptive activity, tail immersion test: no effect up to 10 mg/kg
